Reference: patent US6545029B2, “Phenylserine derivatives as integrin antagonists” (Bayer Aktiengesellschaft, priority 2000, dated 2003)

Target: T1, αvβ3 from human placenta (Homo sapiens, UniProt P05106+P06756)
T1 construct: αvβ3 from human placenta; from tissue; host or cells: human placenta
Assay: αvβ3/echistatin binding inhibition (I125-echistatin, scintillation proximity beads)
Details: inhibition of I125-echistatin binding to αvβ3; 1 hour at room temperature; determined in duplicate from concentration series
Description: The substances were tested for their ability to inhibit αvβ3/echistatin binding analogously to Kumar C. C., Nie H. M., Rogers G. P., Malkowski M., Maxwell E., Catino J. J. and Armstrong L. (Journal of Pharmacology and Experimental Therapeutics 283(2)(1997)843-853).
αvβ3 from human placenta (Smith J. W. and Cheresh, D. A. (1988), J. Biol. Chem. 263, 18726-18732) (1 mg/ml 50 mM tris HCl pH 7.4, 100 mM NaCl, 2 mM CaCl2, 1% and octylglucoside) was diluted with test buffer (50 mM tris-HCl pH 7.4, 100 mM NaCl, 1 mM CaCl2, 1 mM MgCl2, 1 mM MnCl2, 0.1% bovine serum albumin) and 55 μl each of this αvβ3 solution were added to the wells of a 96-well microtiter plate (about 0.1-0.3 μg of αvβ3 per well). 2 μl of the substances to be tested dissolved in DMSO were then added. 10 μl (40,000 cpm) of I^125-echistatin per well were then added and the mixture was incubated for 1 hour at room temperature with careful shaking. It was then treated with 100 μg of wheatgerm-coated yttrium silicate beads (Amersham, type RPNQ0011) in 25 μl of distilled water. After 1 hour at room temperature, the cpm values were measured in a scintillation counter. The Ki values were determined in duplicate from concentration series. The nonspecific binding was determined in the presence of 0.1 μM unlabeled echistatin or by addition of 5 mM EDTA to the binding mixture.

T1 sequence (P06756 31-889 limits assumed): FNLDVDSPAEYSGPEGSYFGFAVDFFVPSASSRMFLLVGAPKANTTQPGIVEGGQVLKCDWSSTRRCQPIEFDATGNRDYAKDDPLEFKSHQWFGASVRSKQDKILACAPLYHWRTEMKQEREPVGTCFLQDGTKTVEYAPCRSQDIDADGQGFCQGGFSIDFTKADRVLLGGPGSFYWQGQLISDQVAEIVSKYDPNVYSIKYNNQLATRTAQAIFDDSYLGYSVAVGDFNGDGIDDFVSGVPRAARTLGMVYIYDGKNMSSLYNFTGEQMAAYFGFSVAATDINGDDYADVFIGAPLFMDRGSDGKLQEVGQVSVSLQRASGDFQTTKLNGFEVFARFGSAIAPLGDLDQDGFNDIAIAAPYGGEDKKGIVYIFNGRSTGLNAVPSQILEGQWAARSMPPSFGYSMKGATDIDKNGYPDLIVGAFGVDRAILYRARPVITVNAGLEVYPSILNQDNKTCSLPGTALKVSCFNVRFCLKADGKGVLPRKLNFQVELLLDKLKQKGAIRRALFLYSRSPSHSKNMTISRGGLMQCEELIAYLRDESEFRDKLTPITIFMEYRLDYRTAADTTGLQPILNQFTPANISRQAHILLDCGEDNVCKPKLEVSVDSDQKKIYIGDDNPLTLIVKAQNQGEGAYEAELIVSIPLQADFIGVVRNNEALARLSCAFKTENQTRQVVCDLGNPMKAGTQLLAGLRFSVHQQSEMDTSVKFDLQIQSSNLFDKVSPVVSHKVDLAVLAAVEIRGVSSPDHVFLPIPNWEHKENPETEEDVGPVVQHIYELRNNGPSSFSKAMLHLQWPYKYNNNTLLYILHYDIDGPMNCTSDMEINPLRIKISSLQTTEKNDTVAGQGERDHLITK
T1 sequence (P06756 891-1048 partner limits assumed): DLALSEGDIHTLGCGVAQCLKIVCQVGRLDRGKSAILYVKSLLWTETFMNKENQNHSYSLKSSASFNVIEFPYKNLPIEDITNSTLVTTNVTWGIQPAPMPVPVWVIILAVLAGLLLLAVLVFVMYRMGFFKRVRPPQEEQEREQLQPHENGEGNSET
T1 sequence (P05106 27-788): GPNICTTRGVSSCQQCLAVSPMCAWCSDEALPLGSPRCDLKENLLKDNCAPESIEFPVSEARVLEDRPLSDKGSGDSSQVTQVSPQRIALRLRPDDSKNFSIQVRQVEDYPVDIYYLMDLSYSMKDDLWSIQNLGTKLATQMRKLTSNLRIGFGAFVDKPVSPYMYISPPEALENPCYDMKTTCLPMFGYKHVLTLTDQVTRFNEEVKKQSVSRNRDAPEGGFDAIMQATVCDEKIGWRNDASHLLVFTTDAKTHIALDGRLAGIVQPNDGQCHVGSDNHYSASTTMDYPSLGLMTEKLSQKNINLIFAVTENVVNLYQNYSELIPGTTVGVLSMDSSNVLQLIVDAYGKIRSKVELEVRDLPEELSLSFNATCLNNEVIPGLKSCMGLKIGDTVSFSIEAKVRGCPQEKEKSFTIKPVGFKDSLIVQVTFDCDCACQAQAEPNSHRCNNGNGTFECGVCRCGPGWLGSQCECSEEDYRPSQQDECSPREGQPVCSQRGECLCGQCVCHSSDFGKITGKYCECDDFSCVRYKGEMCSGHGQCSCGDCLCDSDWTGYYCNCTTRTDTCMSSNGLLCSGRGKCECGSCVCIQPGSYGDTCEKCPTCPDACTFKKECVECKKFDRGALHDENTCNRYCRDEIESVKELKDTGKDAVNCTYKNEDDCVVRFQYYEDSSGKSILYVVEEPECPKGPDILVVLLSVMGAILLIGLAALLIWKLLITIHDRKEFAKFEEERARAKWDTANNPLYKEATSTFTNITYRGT

## CCCNC(=O)Nc1cccc(-c2ccc(OC[C@H](NS(=O)(=O)c3c(C)cc(C)cc3C)C(=O)O)cc2)c1 [Example 20, N-(Mesitylsulfonyl)-O-(3′-{[(propylamino)carbonyl]amino}-1,1′-biphenyl-4-yl)-L-serine]
  Ki: 4 nM
